# Assays:
# Type in all cases: cell-based
# Conditions in all cases: compounds at 50 nM and 500 nM
# WEE1 = target: T1, WEE1 (Homo sapiens, UniProt P30291+Q96SW2); assay: Western blot degradation of WEE1 in hPBMCs (24 h)
# T1 construct: The supernatant was aspirated as the extracted total cell protein; endogenous in cells; host or cells: human peripheral blood mononuclear cells (hPBMCs)
# Summary of the method: (§1)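 Immunoblot densitometry quantifies target loss in hPBMCs after a 24 h compound exposure (50 nM, 500 nM). Percent remaining is normalised band intensity; DC50 is the concentration giving half the DMSO-control band grayscale.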
# IKZF1 = target: T2, IKZF1 (Homo sapiens, UniProt Q13422+Q96SW2); assay: Western blot degradation of IKZF1 in hPBMCs (24 h)
# T2 construct: The supernatant was aspirated as the extracted total cell protein; endogenous in cells; host or cells: human peripheral blood mononuclear cells (hPBMCs)
# T2 sequence (Q13422 whole entry): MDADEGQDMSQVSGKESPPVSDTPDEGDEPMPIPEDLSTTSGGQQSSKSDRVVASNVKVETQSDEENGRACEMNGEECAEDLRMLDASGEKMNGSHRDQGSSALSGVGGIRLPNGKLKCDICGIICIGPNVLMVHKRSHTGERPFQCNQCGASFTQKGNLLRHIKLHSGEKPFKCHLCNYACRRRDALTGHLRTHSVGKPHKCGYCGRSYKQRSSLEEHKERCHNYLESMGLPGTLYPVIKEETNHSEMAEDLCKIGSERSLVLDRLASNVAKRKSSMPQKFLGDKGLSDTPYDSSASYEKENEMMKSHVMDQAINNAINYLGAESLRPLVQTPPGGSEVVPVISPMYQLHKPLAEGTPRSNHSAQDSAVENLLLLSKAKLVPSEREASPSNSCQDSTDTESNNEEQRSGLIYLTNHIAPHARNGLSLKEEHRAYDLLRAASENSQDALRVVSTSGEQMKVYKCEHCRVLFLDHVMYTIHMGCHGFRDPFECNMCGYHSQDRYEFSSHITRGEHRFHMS
# T2 sequence (Q96SW2 whole entry): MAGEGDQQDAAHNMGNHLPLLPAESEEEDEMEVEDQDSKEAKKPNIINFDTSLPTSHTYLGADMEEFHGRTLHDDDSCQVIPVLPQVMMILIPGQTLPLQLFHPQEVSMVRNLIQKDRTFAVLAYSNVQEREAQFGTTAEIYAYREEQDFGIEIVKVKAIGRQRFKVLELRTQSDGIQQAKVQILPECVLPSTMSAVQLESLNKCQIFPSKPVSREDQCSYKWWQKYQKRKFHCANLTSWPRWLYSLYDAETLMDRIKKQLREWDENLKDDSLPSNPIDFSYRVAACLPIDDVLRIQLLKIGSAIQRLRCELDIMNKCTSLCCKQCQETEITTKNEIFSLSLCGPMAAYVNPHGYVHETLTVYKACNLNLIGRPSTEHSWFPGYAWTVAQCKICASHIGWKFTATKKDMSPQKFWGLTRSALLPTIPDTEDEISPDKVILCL
# T2 sequence (Q16531 whole entry partner): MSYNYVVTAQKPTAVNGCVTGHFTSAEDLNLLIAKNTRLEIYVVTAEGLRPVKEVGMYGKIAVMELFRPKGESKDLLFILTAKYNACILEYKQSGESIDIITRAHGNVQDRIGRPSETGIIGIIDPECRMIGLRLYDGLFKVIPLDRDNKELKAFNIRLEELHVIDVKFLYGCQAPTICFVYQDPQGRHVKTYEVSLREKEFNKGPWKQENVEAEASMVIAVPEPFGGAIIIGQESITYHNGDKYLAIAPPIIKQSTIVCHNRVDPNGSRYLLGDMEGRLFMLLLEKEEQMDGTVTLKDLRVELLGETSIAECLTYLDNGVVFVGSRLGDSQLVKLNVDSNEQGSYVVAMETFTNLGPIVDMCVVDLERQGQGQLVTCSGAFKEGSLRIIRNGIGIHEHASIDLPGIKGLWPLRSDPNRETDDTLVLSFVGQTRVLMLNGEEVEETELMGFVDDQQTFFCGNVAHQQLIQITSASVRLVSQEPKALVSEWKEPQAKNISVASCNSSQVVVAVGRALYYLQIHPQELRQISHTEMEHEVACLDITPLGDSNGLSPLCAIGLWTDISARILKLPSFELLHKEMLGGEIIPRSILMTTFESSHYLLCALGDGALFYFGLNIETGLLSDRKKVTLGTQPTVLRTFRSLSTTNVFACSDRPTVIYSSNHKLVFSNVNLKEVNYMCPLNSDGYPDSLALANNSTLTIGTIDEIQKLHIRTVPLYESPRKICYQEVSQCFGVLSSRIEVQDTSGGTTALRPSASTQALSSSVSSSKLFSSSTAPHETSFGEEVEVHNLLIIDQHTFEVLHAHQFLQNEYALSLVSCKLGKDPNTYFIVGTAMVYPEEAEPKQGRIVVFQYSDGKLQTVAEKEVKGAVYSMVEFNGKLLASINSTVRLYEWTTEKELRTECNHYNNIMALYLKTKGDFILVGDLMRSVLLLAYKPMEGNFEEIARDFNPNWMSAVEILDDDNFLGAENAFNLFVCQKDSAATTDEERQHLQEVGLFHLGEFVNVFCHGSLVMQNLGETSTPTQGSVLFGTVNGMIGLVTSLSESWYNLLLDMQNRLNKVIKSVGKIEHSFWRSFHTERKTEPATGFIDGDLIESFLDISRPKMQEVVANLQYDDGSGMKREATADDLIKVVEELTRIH
# Summary of the method: as §1
# IKZF2 = target: T3, IKZF2 (Homo sapiens, UniProt Q96SW2+Q9UKS7); assay: Western blot degradation of IKZF2 in hPBMCs (24 h)
# T3 construct: The supernatant was aspirated as the extracted total cell protein; endogenous in cells; host or cells: human peripheral blood mononuclear cells (hPBMCs)
# T3 sequence (Q9UKS7 whole entry): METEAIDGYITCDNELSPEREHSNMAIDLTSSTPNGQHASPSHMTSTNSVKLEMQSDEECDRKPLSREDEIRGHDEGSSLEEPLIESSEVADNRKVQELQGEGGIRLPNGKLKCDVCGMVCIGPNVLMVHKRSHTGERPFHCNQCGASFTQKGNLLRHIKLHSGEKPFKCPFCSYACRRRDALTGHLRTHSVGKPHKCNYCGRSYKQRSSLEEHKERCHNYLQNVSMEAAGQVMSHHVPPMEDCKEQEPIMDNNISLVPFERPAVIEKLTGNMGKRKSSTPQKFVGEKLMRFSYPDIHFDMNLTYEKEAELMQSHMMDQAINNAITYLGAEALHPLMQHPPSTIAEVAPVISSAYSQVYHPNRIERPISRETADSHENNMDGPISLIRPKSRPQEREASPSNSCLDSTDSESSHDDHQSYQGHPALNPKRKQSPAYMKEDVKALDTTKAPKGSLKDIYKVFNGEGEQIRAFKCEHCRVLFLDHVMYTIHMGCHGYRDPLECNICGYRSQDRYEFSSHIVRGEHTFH
# T3 sequence (Q96SW2 whole entry): as the sequence (Q96SW2 whole entry) above
# T3 sequence (Q16531 whole entry partner): as the sequence (Q16531 whole entry partner) above
# Summary of the method: as §1
# IKZF3 = target: T4, IKZF3 (Homo sapiens, UniProt Q96SW2+Q9UKT9); assay: Western blot degradation of IKZF3 in hPBMCs (24 h)
# T4 construct: The supernatant was aspirated as the extracted total cell protein; endogenous in cells; host or cells: human peripheral blood mononuclear cells (hPBMCs)
# T4 sequence (Q9UKT9 whole entry): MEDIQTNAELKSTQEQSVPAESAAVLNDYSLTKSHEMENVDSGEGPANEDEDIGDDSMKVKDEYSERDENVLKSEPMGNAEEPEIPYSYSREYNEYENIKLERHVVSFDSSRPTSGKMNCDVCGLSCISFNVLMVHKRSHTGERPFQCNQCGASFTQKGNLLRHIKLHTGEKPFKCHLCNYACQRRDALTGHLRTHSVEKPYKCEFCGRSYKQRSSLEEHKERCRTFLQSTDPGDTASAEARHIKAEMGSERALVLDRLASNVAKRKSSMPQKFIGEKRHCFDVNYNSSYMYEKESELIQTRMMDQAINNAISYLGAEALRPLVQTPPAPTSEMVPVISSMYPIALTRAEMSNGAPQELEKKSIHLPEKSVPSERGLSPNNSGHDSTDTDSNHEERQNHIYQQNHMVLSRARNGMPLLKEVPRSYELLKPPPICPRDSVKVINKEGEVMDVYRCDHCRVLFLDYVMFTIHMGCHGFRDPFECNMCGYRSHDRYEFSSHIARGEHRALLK
# T4 sequence (Q96SW2 whole entry): as the sequence (Q96SW2 whole entry) above
# T4 sequence (Q16531 whole entry partner): as the sequence (Q16531 whole entry partner) above
# Summary of the method: as §1
# CK1α = target: T5, CK1α (Homo sapiens, UniProt P48729+Q96SW2); assay: Western blot degradation of CK1α in hPBMCs (24 h)
# T5 construct: The supernatant was aspirated as the extracted total cell protein; endogenous in cells; host or cells: human peripheral blood mononuclear cells (hPBMCs)
# T5 sequence (P48729 whole entry): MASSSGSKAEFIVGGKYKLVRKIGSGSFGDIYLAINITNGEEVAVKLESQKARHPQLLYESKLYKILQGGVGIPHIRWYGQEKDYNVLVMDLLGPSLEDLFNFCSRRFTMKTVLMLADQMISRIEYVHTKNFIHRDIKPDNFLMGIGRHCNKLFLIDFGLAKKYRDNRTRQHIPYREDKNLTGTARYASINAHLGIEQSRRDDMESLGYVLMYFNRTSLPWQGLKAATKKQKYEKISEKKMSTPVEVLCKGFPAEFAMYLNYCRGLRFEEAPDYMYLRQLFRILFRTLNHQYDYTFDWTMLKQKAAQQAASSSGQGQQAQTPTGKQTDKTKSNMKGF
# T5 sequence (Q96SW2 whole entry): as the sequence (Q96SW2 whole entry) above
# T5 sequence (Q16531 whole entry partner): as the sequence (Q16531 whole entry partner) above
# Summary of the method: as §1
# GSPT1 = target: T6, GSPT1 (Homo sapiens, UniProt P15170+Q96SW2); assay: Western blot degradation of GSPT1 in hPBMCs (24 h)
# T6 construct: The supernatant was aspirated as the extracted total cell protein; endogenous in cells; host or cells: human peripheral blood mononuclear cells (hPBMCs)
# T6 sequence (P15170 whole entry): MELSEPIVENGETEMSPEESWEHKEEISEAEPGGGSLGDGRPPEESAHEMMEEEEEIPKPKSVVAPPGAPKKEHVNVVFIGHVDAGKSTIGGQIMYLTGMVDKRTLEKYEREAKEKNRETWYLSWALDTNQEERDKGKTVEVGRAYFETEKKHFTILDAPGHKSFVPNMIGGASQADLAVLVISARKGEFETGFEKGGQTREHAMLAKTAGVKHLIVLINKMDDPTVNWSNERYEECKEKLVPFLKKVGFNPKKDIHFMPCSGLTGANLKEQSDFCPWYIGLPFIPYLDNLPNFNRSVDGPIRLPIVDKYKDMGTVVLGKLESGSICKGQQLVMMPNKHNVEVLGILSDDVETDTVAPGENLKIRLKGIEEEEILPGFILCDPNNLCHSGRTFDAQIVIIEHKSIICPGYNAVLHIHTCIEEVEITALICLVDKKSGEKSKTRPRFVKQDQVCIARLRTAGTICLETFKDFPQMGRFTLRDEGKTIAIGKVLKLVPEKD
# T6 sequence (Q96SW2 whole entry): as the sequence (Q96SW2 whole entry) above
# T6 sequence (Q16531 whole entry partner): as the sequence (Q16531 whole entry partner) above
# Summary of the method: as §1
SMILES,WEE1 substrate protein remaining % (WEE1),IKZF1 substrate protein remaining % (IKZF1),IKZF2 substrate protein remaining % (IKZF2),IKZF3 substrate protein remaining % (IKZF3),CK1α substrate protein remaining % (CK1α),GSPT1 substrate protein remaining % (GSPT1)
"O=C1CCN(N2C(=O)c3ccc(CN4CC(C5CCOc6cc(F)ccc65)C4)cc3C2=O)C(=O)N1 (stereo not drawn) [GT-07715, 2-(2,4-dioxotetrahydropyrimidin-1(2H)-yl)-5-((3-(7-fluorochroman-4-yl)azetidin-1-yl)methyl)isoindoline-1,3-dione]",B (80%< substrate protein remaining % ≤100%),B (80%< substrate protein remaining % ≤100%),B (80%< substrate protein remaining % ≤100%),B (80%< substrate protein remaining % ≤100%),A (0% ≤ substrate protein remaining % ≤80%),A (0% ≤ substrate protein remaining % ≤80%)
"O=C1CCN(N2C(=O)c3ccc(CN4CC(c5ccnc6cc(F)ccc56)C4)cc3C2=O)C(=O)N1 [GT-07718, 2-(2,4-dioxotetrahydropyrimidin-1(2H)-yl)-5-((3-(7-fluoroquinolin-4-yl)azetidin-1-yl)methyl)isoindoline-1,3-dione]",B (80%< substrate protein remaining % ≤100%),B (80%< substrate protein remaining % ≤100%),B (80%< substrate protein remaining % ≤100%),A (0% ≤ substrate protein remaining % ≤80%),A (0% ≤ substrate protein remaining % ≤80%),A (0% ≤ substrate protein remaining % ≤80%)
"O=C1CCN(N2Cc3cc(CN4CCn5c(nnc5C(F)(F)F)C4)ccc3C2=O)C(=O)N1 [GT-07719, 1-(1-oxo-5-((3-(trifluoromethyl)-5,6-dihydro-[1,2,4]triazolo[4,3-a]pyrazin-7 (8H)-yl)methyl)isoindolin-2-yl)dihydropyrimidine-2,4(1H,3H)-dione]",B (80%< substrate protein remaining % ≤100%),B (80%< substrate protein remaining % ≤100%),A (0% ≤ substrate protein remaining % ≤80%),A (0% ≤ substrate protein remaining % ≤80%),A (0% ≤ substrate protein remaining % ≤80%),A (0% ≤ substrate protein remaining % ≤80%)
"O=C1CCN(N2Cc3cc(CN4CCc5sccc5C4)ccc3C2=O)C(=O)N1 [GT-07720, 1-(5-((6,7-dihydrothieno[3,2-c]pyridin-5 (4H)-yl)methyl)-1-oxoisoindolin-2-yl)dihydropyrimidine-2,4(1H,3H)-dione]",A (0% ≤ substrate protein remaining % ≤80%),A (0% ≤ substrate protein remaining % ≤80%),A (0% ≤ substrate protein remaining % ≤80%),A (0% ≤ substrate protein remaining % ≤80%),A (0% ≤ substrate protein remaining % ≤80%),A (0% ≤ substrate protein remaining % ≤80%)
"O=C1CCN(N2Cc3cc(CN4CCN(Cc5ccc(C67CC8CC(CC(C8)C6)C7)cc5)CC4)ccc3C2=O)C(=O)N1 [GT-07721, 1-(5-((4-(4-((3r,5r,7r)-adamantan-1-yl)benzyl)piperazin-1-yl)methyl)-1-oxoisoindolin-2-yl)dihydropyrimidine-2,4(1H,3H)-dione]",A (0% ≤ substrate protein remaining % ≤80%),A (0% ≤ substrate protein remaining % ≤80%),A (0% ≤ substrate protein remaining % ≤80%),A (0% ≤ substrate protein remaining % ≤80%),A (0% ≤ substrate protein remaining % ≤80%),A (0% ≤ substrate protein remaining % ≤80%)
"O=C1CCN(N2C(=O)c3ccc(CN4CCN(Cc5ccc(C67CC8CC(CC(C8)C6)C7)cc5)CC4)cc3C2=O)C(=O)N1 [GT-07722, 5-((4-(4-((3r,5r,7r)-adamantan-1-yl)benzyl)piperazin-1-yl)methyl)-2-(2,4-dioxotetrahydropyrimidin-1(2H)-yl)isoindoline-1,3-dione]",A (0% ≤ substrate protein remaining % ≤80%),B (80%< substrate protein remaining % ≤100%),A (0% ≤ substrate protein remaining % ≤80%),A (0% ≤ substrate protein remaining % ≤80%),A (0% ≤ substrate protein remaining % ≤80%),A (0% ≤ substrate protein remaining % ≤80%)
"O=C1CCN(N2Cc3cc(CNC45CC6CC(CC(O)(C6)C4)C5)ccc3C2=O)C(=O)N1 [GT-07784, 1-(5-((((1r,3s,5R,7S)-3-hydroxyadamantan-1-yl)amino)methyl)-1-oxoisoindolin-2-yl)dihydropyrimidine-2,4(1H,3H)-dione]",B (80%< substrate protein remaining % ≤100%),B (80%< substrate protein remaining % ≤100%),A (0% ≤ substrate protein remaining % ≤80%),B (80%< substrate protein remaining % ≤100%),B (80%< substrate protein remaining % ≤100%),B (80%< substrate protein remaining % ≤100%)
"O=C1CCN(N2C(=O)c3ccc(CNC45CC6CC(CC(O)(C6)C4)C5)cc3C2=O)C(=O)N1 [GT-07786, 2-(2,4-dioxotetrahydropyrimidin-1(2H)-yl)-5-((((1r,3s,5R,7S)-3-hydroxyadamantan-1-yl)amino)methyl)isoindoline-1,3-dione]",B (80%< substrate protein remaining % ≤100%),B (80%< substrate protein remaining % ≤100%),B (80%< substrate protein remaining % ≤100%),B (80%< substrate protein remaining % ≤100%),B (80%< substrate protein remaining % ≤100%),A (0% ≤ substrate protein remaining % ≤80%)
"NCc1ccc2c(c1)C(=O)N(N1CCC(=O)NC1=O)C2=O [GT-07968, 5-(aminomethyl)-2-(2,4-dioxotetrahydropyrimidin-1(2H)-yl)isoindoline-1,3-dione]",A (0% ≤ substrate protein remaining % ≤80%),A (0% ≤ substrate protein remaining % ≤80%),A (0% ≤ substrate protein remaining % ≤80%),A (0% ≤ substrate protein remaining % ≤80%),A (0% ≤ substrate protein remaining % ≤80%),B (80%< substrate protein remaining % ≤100%)
"O=C1CCN(N2Cc3cc(CN4CC=C(c5cccc(Cl)c5Cl)CC4)ccc3C2=O)C(=O)N1 [GT-08054, 1-(5-((4-(2,3-dichlorophenyl)-3,6-dihydropyridin-1(2H)-yl)methyl)-1-oxoisoindolin-2-yl)dihydropyrimidine-2,4(1H,3H)-dione]",A (0% ≤ substrate protein remaining % ≤80%),A (0% ≤ substrate protein remaining % ≤80%),A (0% ≤ substrate protein remaining % ≤80%),A (0% ≤ substrate protein remaining % ≤80%),A (0% ≤ substrate protein remaining % ≤80%),A (0% ≤ substrate protein remaining % ≤80%)
"O=C1CCN(N2Cc3cc(CN4CC=C(c5cccc(F)c5Cl)CC4)ccc3C2=O)C(=O)N1 [GT-08055, 1-(5-((4-(2-chloro-3-fluorophenyl)-3,6-dihydropyridin-1(2H)-yl)methyl)-1-oxoisoindolin-2-yl)dihydropyrimidine-2,4(1H,3H)-dione]",A (0% ≤ substrate protein remaining % ≤80%),A (0% ≤ substrate protein remaining % ≤80%),A (0% ≤ substrate protein remaining % ≤80%),A (0% ≤ substrate protein remaining % ≤80%),A (0% ≤ substrate protein remaining % ≤80%),A (0% ≤ substrate protein remaining % ≤80%)
